Three molecules from patent US20250346582A1, “SPLEEN TYROSINE KINASE INHIBITORS AND METHODS OF USE THEREOF” (THE BOARD OF TRUSTEES OF THE UNIVERSITY OF ILLINOIS, priority 2022, published 2025) can be followed below.

Some results are limits rather than exact numbers.

For one assay, the target named is T1, BLNK-SH2 (Homo sapiens, UniProt Q8WV28).
T1 construct: All SH2 domain constructs were cloned into the pRSET-B vector; polyhistidine (N); made in house; host or cells: Escherichia coli BL21 (DE3) pLysS
T1 sequence (Q8WV28 346-453 limits assumed): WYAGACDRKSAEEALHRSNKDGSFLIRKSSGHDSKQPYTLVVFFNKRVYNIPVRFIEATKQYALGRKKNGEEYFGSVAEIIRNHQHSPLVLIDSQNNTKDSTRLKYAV
The experiment in a line: Fluorescence quenching vesicle binding assay, BLNK-SH2. The note with it: Table 4; POPC/POPS/PIP3/dabsyl-PE (67:20:3:10) vesicles (40 μM); read-out: Imax (%). The protocol: (§1) The membrane-binding assay is based on fluorescence quenching of EGFP fused to a SH2 domain by a dark quencher containing lipid, dabsyl-PE, incorporated in lipid vesicles. The plate reader assay was performed using the Synergy™ Neo spectrofluorometer at 25° C. Nontreated black polystyrene 96-well plates (Corning) were used. Protein (10-50 nM) with the increasing concentration of vesicles with a given lipid composition in 20 mM Tris buffer, pH 7.4, containing 0.16 M NaCl was added to each row of wells and the EGFP fluorescence emission at 516 nm was measured with excitation set at 485 nm. Z′ factor for the assay system was determined as described^74. Imax and IC50 values of inhibitors were determined using the equation, I=Imax/(1+IC50/[I]) where I and [I] indicate % inhibition and inhibitor concentration, respectively. The average and standard deviation values were obtained from triplicate determinations.
(§2) We also optimized a recently developed fluorescence quenching-based lipid-binding assay^47 for high-throughput screening of these molecules for their inhibitory activity against the PIP3-SH2 interaction. Specifically, we expressed SH2 domains as EGFP-tagged proteins and directly quantified their membrane binding by monitoring the quenching of EGFP fluorescence emission intensity by a dark quencher-containing lipid, N-dimethylaminoazo-benzenesulfonyl-phosphatidylethanolamine (dabsyl-PE), incorporated in the vesicles. We then screened for compounds that inhibited binding of Syk-cSH2, BLNK-SH2, and PLCγ2-cSH2, respectively, to 1-palmitoyl-2-oleoyl-PC (POPC)/1-palmitoyl-2-oleoyl-PS (POPS)/PIP3/dabsyl-PE (67:20:3:10) vesicles while eliminating those that inhibit their non-specific binding to anionic POPC/POPS/dabsyl-PE (70:20:10) vesicles. The quality of the screening system was evaluated using 1% dimethylsulfoxide (DMSO) and 20 μM D-myo-inositol-1,3,4,5-tetraphosphate (IP4) as negative and positive controls, respectively. The clear separation of positive and negative control data and the average Z′-factor of 0.7 supported the robustness of our system for high-throughput screen of PIP3-SH2 interaction inhibitors.

The target of the next assay is T2, PLCγ2-cSH2 (Homo sapiens, UniProt P16885).
T2 construct: polyhistidine (N); made in house; host or cells: Escherichia coli BL21 (DE3) pLysS
T2 sequence (P16885 646-735 limits assumed): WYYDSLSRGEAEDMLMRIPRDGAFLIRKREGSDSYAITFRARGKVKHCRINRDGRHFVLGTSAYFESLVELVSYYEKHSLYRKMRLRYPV
The experiment in a line: Fluorescence quenching vesicle binding assay, PLCγ2-cSH2. The note with it: Table 4; POPC/POPS/PIP3/dabsyl-PE (67:20:3:10) vesicles (40 μM); read-out: Imax (%). The protocol:
as §1, §2

In the next assay the target is T3, pSyk (Homo sapiens, UniProt P43405).
T3 construct: endogenous in cells; host or cells: Raji B cells, IgM-stimulated
Kind of assay: Western blot inhibition of Syk phosphorylation in Raji B cells. Type of assay: cell-based. The settings on record: Immunoblotting, Western blot assay in Raji B cells. How it is done: (§3) (a) Cellular efficacy of WC35, WC36, and WC38 was determined by dose-dependent inhibition of Syk phosphorylation in Raji B cells. (b) Imax and IC50 values were determined by non-linear least-squares analysis of data using the equation: […] Each data represents average ±s.d. from triplicate measurements. […] Jurkat T cells were stimulated by OKT3. Cells were seeded at a density of 3.0×10^5 cells/well prior to incubation with inhibitors. […] IgG2 for AML cells, IgM for Raji B cells, and OKT3 (Biolegend) for Jurkat cells. […] Samples were analyzed by SDS-PAGE. Proteins were separated and transferred to Immobilon-P polyvinylidene difluoride membrane (Millipore Sigma). […] The chemiluminescence intensity of protein bands in the gel was analyzed and documented by the Azure […] Imaging System.
(In general: Immunoblotting shows a protein as a band on a membrane.)

The target in the next assay is T4, pZAP70 (Homo sapiens, UniProt P43403).
T4 construct: host or cells: Jurkat T cells, OKT3-stimulated
T4 sequence (P43403 1-619): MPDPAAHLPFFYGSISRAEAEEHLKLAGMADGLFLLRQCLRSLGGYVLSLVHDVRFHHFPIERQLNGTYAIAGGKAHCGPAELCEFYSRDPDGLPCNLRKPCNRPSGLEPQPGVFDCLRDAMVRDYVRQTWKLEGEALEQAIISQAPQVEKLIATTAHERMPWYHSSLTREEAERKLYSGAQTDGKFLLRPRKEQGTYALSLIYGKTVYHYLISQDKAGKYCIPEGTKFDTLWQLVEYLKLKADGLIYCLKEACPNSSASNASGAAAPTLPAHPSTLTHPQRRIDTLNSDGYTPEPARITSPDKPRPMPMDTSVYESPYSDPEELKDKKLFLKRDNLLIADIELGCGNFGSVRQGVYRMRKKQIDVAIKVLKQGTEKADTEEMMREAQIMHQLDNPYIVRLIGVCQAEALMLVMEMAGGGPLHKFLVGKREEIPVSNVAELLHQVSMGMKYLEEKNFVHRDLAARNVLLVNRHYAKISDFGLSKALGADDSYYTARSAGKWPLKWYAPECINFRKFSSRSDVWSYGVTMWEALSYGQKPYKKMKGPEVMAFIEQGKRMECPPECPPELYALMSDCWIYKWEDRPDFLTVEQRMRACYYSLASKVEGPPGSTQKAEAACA
The experiment in a line: Western blot inhibition of ZAP70 phosphorylation in Jurkat T cells. The assay is classed as cell-based. The settings on record: for Emax: Immunoblotting, pZAP70, Western blot assay in Jurkat T cells, read-out: Imax (%); for inhibition of ZAP-70 phosphorylation: Jurkat T cells stimulated by OKT3, 5 μM overnight. The protocol:
as §3

Assay [1] concerns phosphorylation of Syk, ERK1/2 and STAT3/5. Kind of assay: Western blot of phosphorylation in entospletinib-resistant MV4-11 cells. Type of assay: cell-based. The settings on record: 5 μM. The protocol:
Cells were seeded at a density of 3.0×10^5 cells/well prior to incubation with inhibitors. Cells were incubated with 1-5 μM of Syk inhibitors overnight and stimulated with different antibodies: IgG2 for AML cells, IgM for Raji B cells, and OKT3 (Biolegend) for Jurkat cells. The cells were lysed in NP40 lysis buffer (50 mM Tris, pH 7.5, 150 mM NaCl, 1 mM EDTA, 1% NP40, 10% glycerol, 10 mM NaF, 10 mM Na3VO4, and the protease inhibitor cocktail) at 4° C. and the cell debris was removed by centrifugation. Samples were analyzed by SDS-PAGE. Proteins were separated and transferred to Immobilon-P polyvinylidene difluoride membrane (Millipore Sigma). The membrane was blocked with 5% bovine serum albumin for 1 h and incubated overnight at 4° C. with various antibodies (1:1000 dilution for all antibodies). After the unbound antibodies were removed by washing with 0.1% Tris buffer saline with 0.1% Tween20, the membranes were incubated with the horseradish peroxidase secondary antibody (1:5000 dilution) for 1 h at room temperature. The membranes were washed three more times with 0.1% Tris buffer saline with 0.1% Tween20 to remove the unbound horseradish peroxidase secondary antibody before imaging. The chemiluminescence intensity of protein bands in the gel was analyzed and documented by the Azure 500Q Imaging System.
Then the concentration was maintained at 5 μM.

In general, IC50 refers to the point on the concentration scale where inhibition reaches its midpoint. Low readings indicate greater potency in that assay, high ones weaker potency in that assay. Regarding `[N-]=[N+]=C(C(=O)OC1CCCCC1)C(Nc1ncccn1)c1ccco1` (racemic) [WC35, Cyclohexyl 2-diazo-3-(furan-2-yl)-3-(pyrimidin-2-ylamino)propanoate], the Emax at BLNK-SH2, at PLCγ2-cSH2 and at pZAP70 was under 10% each time. At pSyk, 180 ± 50 nM corresponded to half-maximal inhibition (IC50). For the same molecule, the “Imax (%)” value at pSyk is 58 ± 5%. In addition, the “inhibition of ZAP-70 phosphorylation” value on pZAP70 is “did not inhibit phosphorylation and activation of ZAP-70”. The “inhibition of phosphorylation of Syk, ERK1/2 and STAT3/5” value (shortened to “inhibition of phosphorylation of Syk”) in assay [1] was “significantly less active than WC36”.

In the case of `[N-]=[N+]=C(C(=O)OC1CCCCC1)C(Nc1ncccn1)c1c[nH]c2ccccc12` (racemic) [WC36, Cyclohexyl 2-diazo-3-(1H-indol-3-yl)-3-(pyrimidin-2-ylamino)propanoate], on BLNK-SH2, the Emax is under 10%. The Emax at PLCγ2-cSH2 is under 10%. At pSyk, the IC50 was 52 ± 10 nM and the “Imax (%)” value was 67 ± 5%. For the same molecule, at pZAP70, the Emax is under 10%; the “inhibition of ZAP-70 phosphorylation” value was “did not inhibit phosphorylation and activation of ZAP-70”. Moreover, the “inhibition of phosphorylation of Syk” value in assay [1] was “potently suppressed the phosphorylation and activation of Syk, ERK1/2, and STAT3/5”.

Take `[N-]=[N+]=C(C(=O)OC1CCCCC1)C(Nc1ncccn1)c1ccc[nH]1` (racemic) [WC38, Cyclohexyl 2-diazo-3-(pyrimidin-2-ylamino)-3-(1H-pyrrol-2-yl)propanoate]: the Emax on BLNK-SH2, at PLCγ2-cSH2 and at pZAP70 was under 10% throughout. At pSyk, this molecule showed an IC50 of 180 ± 30 nM. In addition, the “Imax (%)” value at pSyk came out at 65 ± 3%. Besides, at pZAP70, the “inhibition of ZAP-70 phosphorylation” value is “did not inhibit phosphorylation and activation of ZAP-70”. Moreover, the “inhibition of phosphorylation of Syk” value in assay [1] is reported as “significantly less active than WC36”.
